# Measurements from patent publication US20090181972A1, “Novel Inhibitors of Cysteine Proteases, the Pharmaceutical Compositions Thereof and their Therapeutic Applications” (priority 2005, published 2009).
# How the values were obtained:
# Uch-L3 = biological target: T1, Uch-L3 (Homo sapiens, UniProt P15374); assay: UCH-L3 activity assay; assay type: biochemical; conditions: 400 nM Ub-AMC, 13 pM enzyme; pre-incubated 30 minutes at 25° C., 60 minutes at 37° C.; sigmoidal fit
# T1 sequence (P15374 1-230): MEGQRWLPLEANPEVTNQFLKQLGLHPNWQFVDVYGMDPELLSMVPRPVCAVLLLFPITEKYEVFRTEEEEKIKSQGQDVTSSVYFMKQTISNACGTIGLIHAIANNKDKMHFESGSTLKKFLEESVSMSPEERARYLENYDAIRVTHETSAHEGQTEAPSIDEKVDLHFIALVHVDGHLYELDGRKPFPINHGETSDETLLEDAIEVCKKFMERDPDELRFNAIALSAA
# Protocol: Uch-L3 was diluted in USP buffer (50 mM Tris HCl; 0.5 mM EDTA; 5 mM DTT; 0.01% Triton X-100; Bovine Serum Albumin 0.05 mg.ml^−1 pH 7.6). Compounds stocks (100 mM) were stored at −20° C. in DMSO. Compounds were tested at the following final concentrations: 100 μM; 33.3 μM; 11.1 μM; 3.7 μM; 1.23 μM; 412 nM; 137 nM; 45.7 nM; 15.2 nM; 5 nM.
# Reactions were performed as duplicates in Black LJL 96 well plates (HE microplates; Molecular Devices; 20 μl final reaction volume). The substrate concentration for Uch-L3 was 400 nM Ub-AMC (Boston Biochem). The concentration of the enzyme (Uch-L3) in specificity assays was 13 pM. The concentrations were determined in order to perform specificity assays under initial velocities at fixed substrate concentration. Compounds were pre-incubated with enzymes for 30 minutes at 25° C. Reactions were initiated by addition of substrate to the plates containing the enzymes (+/− compounds) diluted in assay buffer. Reactions were incubated for 60 minutes at 37° C. Reactions were stopped by adding acetic acid (100 mM final). Readings were performed on a Pherastar Fluorescent Reader (BMG). δ Emission 380 nm; δ Excitation=460 nm. Data (mean values +/− standard deviation) were analyzed as % of control (no compound) and plotted as percentage versus the Log of the compound concentration using GraphPad (Prism). Data were fitted to a sigmoidal model (variable slope).
# Cathepsin B = Cathepsin B (Homo sapiens, UniProt P07858); assay: Cathepsin B activity assay; assay type: biochemical; conditions: 36 μM z-RR-AMC, 3.6 nM enzyme; pre-incubated 30 minutes at 25° C., 60 minutes at 37° C.; sigmoidal fit
# Protocol: Cathepsin B was diluted in Cathepsin B buffer (20 mM Tris HCl pH 6.8; 1 mM EDTA; 1 mM DTT). Compounds stocks (100 mM) were stored at −20° C. in DMSO. Compounds were tested at the following final concentrations: 100 μM; 33.3 μM; 11.1 μM; 3.7 μM; 1.23 μM; 412 nM; 137 nM; 45.7 nM; 15.2 nM; 5 nM. Reactions were performed as duplicates in Black LJL 96 well plates (HE microplates; Molecular Devices; 20 μl final reaction volume). The substrate concentration for cathepsin B specificity assay was 36 μM (z-RR-AMC; Calbiochem). The concentration of the enzyme (Cathepsin B) in specificity assays was 3.6 nM. The concentrations were determined in order to perform specificity assays under initial velocities at fixed substrate concentration. Compounds were pre-incubated with enzymes for 30 minutes at 25° C. Reactions were initiated by addition of substrate to the plates containing the enzymes (+/− compounds) diluted in assay buffer. Reactions were incubated for 60 minutes at 37° C. Reactions were stopped by adding acetic acid (100 mM final). Readings were performed on a Pherastar Fluorescent Reader (BMG). δ Emission 380 nm; δ Excitation=460 nm. Data (mean values +/− standard deviation) were analyzed as % of control (no compound) and plotted as percentage versus the Log of the compound concentration using GraphPad (Prism). Data were fitted to a sigmoidal model (variable slope).
# [1] = system: PC-3 prostate cancer cells; assay: PC3 cell viability and proliferation assay (MTS); assay type: cell-based; conditions: 72 hours incubation, mean of three independent experiments, read-out: PC3 GI50 D3
# Method in brief: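 PC-3 cells, seeded 24 h earlier, were treated in triplicate at 5 nM–10 μM with 0.5% final DMSO for 72 hours. Viability was read by 2-hour MTS conversion and absorbance at 492 nm. GI50 came from a sigmoidal variable-slope fit, averaged over three independent experiments.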
IC50 (Uch-L3) [nM],IC50 (Cathepsin B) [nM],GI50 [1] [nM],Molecule
323,17400,994,"6-(7)-Chloro-1-methyl-2,3,4,10,10a-pentaaza-cyclopenta[b]fluoren-9-one [Example 3/A]"
1800,,,"CCc1nnc2nc3c(nn12)C(=O)c1cc(OC)c(OC)cc1-3 [Example 5b/A, 1-Ethyl-6,7-dimethoxy-2,3,4,10,10a-pentaaza-cyclopenta[b]fluoren-9-one]"
131,,,"CCc1nnc2nc3c(nn12)-c1cc(OC)c(OC)cc1C3=O [Example 5b/B, 3-Ethyl-6,7-dimethoxy-1,2,3a,4,10-pentaaza-cyclopenta[b]fluoren-9-one]"
800,9200,,"CC(C)c1nnc2nc3c(nn12)C(=O)c1ccccc1-3 [Example 1l/A, 1-lsopropyl-2,3,4,10,10a-pentaaza-cyclopenta[b]fluoren-9-one]"
